Reference: patent US20040249122A1, “Cationic, amphipathic beta-sheet peptides and uses thereof” (priority 2003, published 2004)
≈ marks a conversion by molar mass, not a printed value. Where a SMILES comes first, the peptide text is derived from it.

Columns and labels:
[1] = test system: Candida albicans (ATCC 14053); settings: ATCC 14053
Experimental: (§1) Antimicrobial and Hemolytic Assays. Antimicrobial susceptibility testing against Staphylococcus aureus (ATCC 29213), Escherichia coli (ATCC 25922), and Pseudomonas aeruginosa (ATCC 27853) was performed using a modification of the National Committee for Clinical Laboratory Standards microdilution broth assay (22). Mueller-Hinton broth (BBL) was used for diluting the peptide stock solution and for diluting the bacterial inoculum. The inoculum was prepared from mid-logarithmic phase cultures. Microtiter plate wells received aliquots-of 100 μL each of the inoculum and peptide dilution. The final concentration of peptide solution ranged-from 0.25 to 256 μg/mL in two-fold dilutions. The final concentration of bacteria in the wells was 5×10^5 CFU/mL. Peptides were tested in duplicate. In addition to the test peptide, three standard peptides and a non-treated growth control were included to validate the assay. The microtiter plates were incubated overnight at 37° C. and the absorbance was measured at 600 nm. […] After incubation at 37° C. for 30 min, the suspension was centrifuged at 10,000×g for 10 min and the absorbance at 400 nm was measured. Complete hemolysis was determined by adding 0.2% Triton X-100 in place of the peptide.
Antimicrobial susceptibility testing against Escherichia coli (ATCC 25922), Staphylococcus aureus (ATCC 29213), Pseudomonas aeruginosa (ATCC 27853), and Candida albicans (ATCC 14053) is performed using a modification of the National Committee for Clinical Laboratory Standards microdilution broth assay. Mueller-Hinton broth (BBL) is used for diluting the peptide stock solution and for diluting the bacterial inoculum. The inoculum is prepared from midlogarithmic phase cultures at an approximate concentration of 10^6 CFU/mL. Microtiter plate wells receive aliquots of 0.1 mL each of the inoculum and peptide dilution. The final concentration of the peptide solution ranges from 0.25 to 256 μg/mL in 2-fold dilutions. The microtiter plates are incubated overnight at 37° C.

[2] = test system: human erythrocytes; experiment: Hemolysis of human erythrocytes; assay type: cell-based; settings: red cells of human, 500
Experimental: as §1, with “Microtiter plate wells received aliquots-of 100 μL each of the inoculum and peptide dilution.” left out, “measured.” for “measured. Complete hemolysis was determined by adding 0.2% Triton X-100 in place of the peptide.”

[3] = test system: Pseudomonas aeruginosa (ATCC 27853); assay type: cell-based; settings: ATCC 27853
Experimental: as §1, with “Microtiter plate wells received aliquots-of 100 μL each of the inoculum and peptide dilution.” left out, “measured.” for “measured. Complete hemolysis was determined by adding 0.2% Triton X-100 in place of the peptide.”

[4] = test system: Escherichia coli (ATCC 25922); assay type: cell-based; settings: ATCC 25922
Experimental: as §1, with “Microtiter plate wells received aliquots-of 100 μL each of the inoculum and peptide dilution.” left out, “measured.” for “measured. Complete hemolysis was determined by adding 0.2% Triton X-100 in place of the peptide.”

[5] = test system: Staphylococcus aureus (ATCC 29213); assay type: cell-based; settings: ATCC 29213
Experimental: as §1, with “Microtiter plate wells received aliquots-of 100 μL each of the inoculum and peptide dilution.” left out, “measured.” for “measured. Complete hemolysis was determined by adding 0.2% Triton X-100 in place of the peptide.”

[6] = Peptide-induced leakage from calcein-loaded LUV
Experimental: Peptide-Induced Leakage from Calcein-Loaded LUV. The ability of the peptides to release calcein (MW 623) from LUV of varying lipid composition was compared. LUV were prepared as above, except that-the buffer consisted of 50 mM HEPES, 100 mM NaCl, 0.3 mM EDTA, 80 mM calcein, pH 7.4. Calcein-loaded vesicles were separated from free calcein by size-exclusion chromatography using a Sephadex G-50 column and calcein-free buffer. Calcein leakage was monitored using a Perkin-Elmer LS-500 luminescence spectrometer by measuring the time-dependent increase in fluorescence of calcein (excitation=490 nm, emission=520 nm). LUV containing 8 nmoles of lipid were added to 1.5 mL of buffer in a stirred cuvet at 25° C. An aliquot of peptide was added to achieve the desired lipid-to-peptide ratio (256 to 8). Complete leakage was determined by the addition of 20 μL of 10% Triton X-100. Each value represents at least nine different measurements using at least three different LUV preparations.

| Compound | Minimum Inhibitory Concentration, C. albicans [1] [µg/mL] | % Hemolysis (500 μg/mL) [2] [%] | Minimum Inhibitory Concentration, P. aeruginosa [3] [µg/mL] | Minimum Inhibitory Concentration, E. coli [4] [µg/mL] | Minimum Inhibitory Concentration, S. aureus [5] [µg/mL] | calcein leakage from LUV (in words) ([6]; 4:1 POPE/POPG LUV) | calcein leakage from LUV (in words) ([6]; POPC (PC) LUV) | calcein leakage from LUV (in words) ([6]; POPC/POPG LUV, all ratios (1:1 to 4:1)) | calcein release from LUV (in words) ([6]; POPG LUV) | MIC Pseud. aerug [3] [µg/mL] | MIC E. coli [4] [µg/mL] | MIC Staph. aureus [5] [µg/mL] |
| --- | --- | --- | --- | --- | --- | --- | --- | --- | --- | --- | --- | --- |
| CC(C)C[C@H](NC(=O)CNC(=O)[C@H](C)NC(=O)[C@H](CC(C)C)NC(=O)[C@H](CCCCN)NC(=O)[C@H](CCCCN)NC(=O)[C@H](C)NC(=O)[C@H](CC(C)C)NC(=O)CNC(=O)[C@H](C)NC(=O)[C@H](CC(C)C)NC(=O)[C@H](CCCCN)NC(=O)[C@H](CCCCN)NC(=O)[C@H](C)NC(=O)[C@H](CC(C)C)NC(=O)CNC(=O)[C@H](C)NC(=O)[C@H](CC(C)C)NC(=O)[C@@H](N)CCCCN)C(=O)N[C@@H](C)C(=O)N[C@@H](CCCCN)C(N)=O [(KLAGLAK)3-NH2, KLAGLAKKLAGLAKKLAGLAK -NH2] (H-KLAGLAKKLAGLAKKLAGLAK-NH2) | 64 | 9 | 128 | 8 | 16 | – | – | – | – | – | – | – |
| CC[C@H](C)[C@H](NC(=O)CN)C(=O)NCC(=O)N[C@@H](CCCCN)C(=O)N[C@@H](Cc1ccccc1)C(=O)N[C@@H](CC(C)C)C(=O)N[C@@H](Cc1c[nH]cn1)C(=O)N[C@@H](CO)C(=O)N[C@@H](C)C(=O)N[C@@H](CCCCN)C(=O)N[C@@H](CCCCN)C(=O)N[C@@H](Cc1ccccc1)C(=O)NCC(=O)N[C@@H](CCCCN)C(=O)N[C@@H](C)C(=O)N[C@@H](Cc1ccccc1)C(=O)N[C@H](C(=O)NCC(=O)N[C@@H](C)C(=O)N[C@H](C(=O)N[C@@H](CCSC)C(=O)N[C@@H](CC(N)=O)C(=O)N[C@@H](CO)C(N)=O)[C@@H](C)CC)C(C)C [A19-Magainin 2-NH2, reference compound] (H-GIGKFLHSAKKFGKAFVGAIMNS-NH2) | 128 | 29 | 16 | 8 | 64 | – | – | – | – | – | – | – |
| CC[C@H](C)[C@H](NC(=O)[C@H](C)NC(=O)CNC(=O)[C@H](C)NC(=O)[C@H](CCCCN)NC(=O)[C@H](CO)NC(=O)[C@H](C)NC(=O)[C@H](CCSC)NC(=O)CN)C(=O)N[C@@H](C)C(=O)NCC(=O)N[C@@H](CCCCN)C(=O)N[C@H](C(=O)N[C@@H](C)C(=O)N[C@@H](CCCCN)C(=O)N[C@H](C(=O)N[C@@H](C)C(=O)N[C@@H](CC(C)C)C(=O)N[C@@H](CCCCN)C(=O)N[C@@H](C)C(=O)N[C@@H](CC(C)C)C(N)=O)C(C)C)[C@@H](C)CC [PGLa, GMASKAGAIAGKIAKVALKAL -NH2, reference compound] (H-GMASKAGAIAGKIAKVALKAL-NH2; N-terminus assumed) | 128 | 1 | 128 | 32 | 64 | quite low | not very effective | most potent | most potent | – | – | – |
| CC[C@H](C)[C@H](NC(=O)[C@H](CCCCN)NC(=O)CNC(=O)[C@H](C)NC(=O)[C@@H](NC(=O)[C@H](CCCCN)NC(=O)[C@H](C)NC(=O)[C@@H](NC(=O)[C@H](CCCCN)NC(=O)CNC(=O)[C@H](C)NC(=O)[C@@H](NC(=O)[C@H](CCCCN)NC(=O)[C@H](C)NC(=O)[C@@H](NC(=O)[C@H](CCCCN)NC(=O)CNC(=O)[C@H](C)NC(=O)[C@@H](NC(=O)[C@@H](N)CCCCN)[C@@H](C)CC)[C@@H](C)CC)[C@@H](C)CC)[C@@H](C)CC)[C@@H](C)CC)C(=O)N[C@@H](C)C(N)=O [(KIAGKIA)3-NH2, KIAGKIAKIAGKIAKIAGKIA -NH2, reference compound] (H-KIAGKIAKIAGKIAKIAGKIA-NH2; N-terminus assumed) | 64 | 9 | 32 | 8 | 8 | most potent | not very effective | – | – | 32 (≈ 15.5 µM) | 8 (≈ 3.88 µM) | 8 (≈ 3.88 µM) |
| CC[C@H](C)[C@H](NC(=O)CN)C(=O)NCC(=O)N[C@@H](CCCCN)C(=O)N[C@@H](Cc1ccccc1)C(=O)N[C@@H](CC(C)C)C(=O)N[C@@H](CCCCN)C(=O)N[C@@H](CCCCN)C(=O)N[C@@H](C)C(=O)N[C@@H](CCCCN)C(=O)N[C@@H](CCCCN)C(=O)N[C@@H](Cc1ccccc1)C(=O)NCC(=O)N[C@@H](CCCCN)C(=O)N[C@@H](C)C(=O)N[C@@H](Cc1ccccc1)C(=O)N[C@H](C(=O)N[C@@H](CCCCN)C(=O)N[C@H](C(=O)N[C@@H](CC(C)C)C(=O)N[C@@H](CCCCN)C(=O)N[C@@H](CCCCN)C(N)=O)[C@@H](C)CC)C(C)C [MSI-78, reference compound] (H-GIGKFLKKAKKFGKAFVKILKK-NH2) | 64 | 9 | 4 | 8 | 8 | – | – | – | – | – | – | – |
| CC[C@H](C)[C@H](NC(=O)CN)C(=O)NCC(=O)N[C@@H](CCCCN)C(=O)N[C@@H](Cc1ccccc1)C(=O)N[C@@H](CC(C)C)C(=O)N[C@@H](Cc1c[nH]cn1)C(=O)N[C@@H](CO)C(=O)N[C@@H](C)C(=O)N[C@@H](CCCCN)C(=O)N[C@@H](CCCCN)C(=O)N[C@@H](Cc1ccccc1)C(=O)NCC(=O)N[C@@H](CCCCN)C(=O)N[C@@H](C)C(=O)N[C@@H](Cc1ccccc1)C(=O)N[C@H](C(=O)NCC(=O)N[C@@H](CCC(=O)O)C(=O)N[C@H](C(=O)N[C@@H](CCSC)C(=O)N[C@@H](CC(N)=O)C(=O)N[C@@H](CO)C(N)=O)[C@@H](C)CC)C(C)C [Magainin 2-NH2, GIGKFLHSAKKFGKAFVGEIMNS -NH2, reference compound] (H-GIGKFLHSAKKFGKAFVGEIMNS-NH2) | >256 | 2 | 256 | 64 | 256 | – | – | – | – | – | – | – |
